Measurements published in the supplement of paper PMC10307832.

How the values were obtained:
Experiment in all cases: relative viability (nuclei count vs DMSO), 5 days (fraction); higher = more cells survive
[1] = compound: CC1=CC(=CC=C1)NC2=NC(=CS2)C3=CC=NC=C3 + COc1cccc2cc(-c3nc([C@H]4CC[C@H](C(=O)O)CC4)n4ncnc(N)c34)[nH]c12 [OSI-027] (partner 0.5 µM)
Outline: (§1)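 Nuclei were stained with Hoechst during a one-step fixation (final 0.05% Triton X-100, 1% formaldehyde, 1 ug/ml Hoechst) carried out 5 days after dosing, then counted on 4× images. The cells, lung cancer lines in 1536-well plates, had been dosed by pin tool the day after seeding with one drug alone or a fixed anchor-drug dose plus five library-drug doses (not always all listed) in √10 steps. Relative viability is the nuclei count in treated wells divided by that in vehicle wells, and each value is the median of duplicate plates.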

[2] = compound: CC1=CC(=CC=C1)NC2=NC(=CS2)C3=CC=NC=C3 + CS(=O)(=O)N1CCN(Cc2cc3nc(-c4cccc5[nH]ncc45)nc(N4CCOCC4)c3s2)CC1 [Pictilisib] (partner 1 µM)
Outline: as §1

Masitinib + Lapatinib = compound: Cc1ccc(NC(=O)c2ccc(CN3CCN(C)CC3)cc2)cc1Nc1nc(-c2cccnc2)cs1 [Masitinib] + CS(=O)(=O)CCNCc1ccc(-c2ccc3ncnc(Nc4ccc(OCc5cccc(F)c5)c(Cl)c4)c3c2)o1 [Lapatinib] (partner 2 µM)
Outline: as §1

Masitinib + Dasatinib = compound: Cc1ccc(NC(=O)c2ccc(CN3CCN(C)CC3)cc2)cc1Nc1nc(-c2cccnc2)cs1 [Masitinib] + Cc1nc(Nc2ncc(C(=O)Nc3c(C)cccc3Cl)s2)cc(N2CCN(CCO)CC2)n1 [Dasatinib] (partner 0.075 µM)
Outline: as §1

Row | Cell Line | relative viability ([1]; first compound 0.08 µM) | relative viability ([1]; first compound 0.253 µM) | relative viability ([1]; first compound 0.8 µM) | relative viability ([1]; first compound 2.53 µM) | relative viability ([1]; first compound 8 µM) | relative viability ([2]; first compound 0.08 µM) | relative viability ([2]; first compound 0.253 µM) | relative viability ([2]; first compound 0.8 µM) | relative viability ([2]; first compound 2.53 µM) | relative viability ([2]; first compound 8 µM) | relative viability (Masitinib + Lapatinib; first compound 0.01 µM) | relative viability (Masitinib + Lapatinib; first compound 0.03162 µM) | relative viability (Masitinib + Lapatinib; first compound 0.1 µM) | relative viability (Masitinib + Lapatinib; first compound 0.3162 µM) | relative viability (Masitinib + Lapatinib; first compound 1 µM) | relative viability (Masitinib + Dasatinib; first compound 0.03162 µM) | relative viability (Masitinib + Dasatinib; first compound 0.1 µM) | relative viability (Masitinib + Dasatinib; first compound 0.3162 µM) | relative viability (Masitinib + Dasatinib; first compound 1 µM) | relative viability (Masitinib + Dasatinib; first compound 0.01 µM)
1 | HARA | 0.33 | 0.496 | 0.328 | 0.48 | 0.473 | 0.343 | 0.354 | 0.367 | 0.21 | 0.374 | 0.582 | 0.78 | 0.855 | 0.675 | 0.719 | 0.289 | 0.283 | 0.152 | 0.258 | 
2 | NCI-H2126 | 0.608 | 0.582 | 0.674 | 0.631 | 0.651 | 0.416 | 0.443 | 0.449 | 0.425 | 0.436 | 0.773 | 0.724 | 0.734 | 0.662 | 0.769 | 0.537 | 0.653 | 0.369 | 0.525 | 0.681
3 | NCI-H1563 | 0.723 | 0.775 | 0.842 | 0.779 | 0.697 | 0.675 | 0.616 | 0.712 | 0.617 | 0.592 | 0.945 | 0.941 | 0.969 | 0.945 | 0.732 | 0.481 | 0.49 | 0.481 | 0.415 | 0.399
4 | NCI-H1915 | 0.598 | 0.61 | 0.602 | 0.575 | 0.587 | 0.834 | 0.853 | 0.888 | 0.759 | 0.92 |  | 1.06 | 0.678 | 1.06 | 0.984 | 0.214 |  | 0.319 | 0.276 | 
5 | NCI-H661 | 0.621 | 0.653 | 0.687 | 0.7 | 0.578 | 0.447 | 0.47 | 0.407 | 0.397 | 0.489 | 0.52 | 0.229 | 0.566 | 0.492 | 0.41 | 1.03 | 1.04 | 0.795 | 0.658 | 0.883
6 | COR-L23 | 0.587 | 0.66 | 0.555 | 0.64 | 0.503 | 0.539 | 0.57 | 0.451 | 0.714 | 0.661 | 0.715 | 1.2 | 0.896 | 1.2 | 1.17 | 0.419 | 0.531 | 0.437 | 0.543 | 0.411
7 | COR-L 105 | 0.562 | 0.62 | 0.561 | 0.597 | 0.581 | 0.322 | 0.427 | 0.374 | 0.413 | 0.393 | 0.298 | 0.379 | 0.4 | 0.36 | 0.312 | 0.338 | 0.305 | 0.288 | 0.286 | 0.37
8 | LK-2 | 0.165 | 0.181 | 0.237 | 0.185 | 0.214 | 0.572 | 0.569 | 0.853 |  | 0.674 | 1.06 | 0.836 | 1.12 | 1.06 | 0.941 | 0.243 | 0.289 | 0.306 | 0.263 | 0.336
9 | 201T | 0.501 | 0.438 | 0.522 | 0.494 | 0.536 | 0.547 | 0.537 | 0.598 | 0.565 | 0.602 | 0.763 | 1.01 | 0.811 | 0.882 | 1.03 | 0.594 | 0.521 | 0.42 | 0.491 | 0.53
10 | NCI-H647 | 0.531 | 0.471 | 0.659 | 0.585 | 0.644 |  | 0.289 | 0.388 | 0.317 | 0.231 | 0.869 | 0.919 | 1.07 | 1.04 | 0.994 | 0.208 | 0.186 | 0.171 | 0.155 | 0.181
11 | H3255 | 0.527 | 0.615 | 0.726 | 0.494 | 0.701 | 0.535 | 0.552 | 0.542 | 0.526 | 0.408 |  | 0.268 | 0.243 | 0.213 | 0.248 | 0.363 | 0.336 | 0.349 | 0.339 | 0.335
12 | NCI-H650 | 0.509 | 0.511 | 0.544 | 0.475 | 0.578 | 0.771 | 0.863 | 0.893 |  | 0.822 | 0.927 | 0.859 | 1.09 | 1.07 | 1.1 | 0.429 | 0.482 | 0.313 | 0.415 | 0.516
13 | NCI-H2085 | 0.7 | 0.614 | 0.598 | 0.613 | 0.522 | 0.5 | 0.434 | 0.453 | 0.426 | 0.447 | 0.732 | 0.736 | 0.839 | 0.703 | 0.664 | 0.249 | 0.242 | 0.278 | 0.215 | 0.215
14 | NCI-H2347 | 0.362 | 0.328 |  | 0.419 | 0.411 | 0.583 | 0.685 | 0.434 | 0.665 | 0.578 | 0.826 | 0.911 | 0.821 | 0.833 | 0.948 | 0.293 | 0.274 | 0.279 | 0.262 | 0.325
15 | NCI-H2170 | 0.733 | 0.646 | 0.583 | 0.537 | 0.651 | 0.296 | 0.287 | 0.301 | 0.271 | 0.276 | 0.269 | 0.275 | 0.267 | 0.264 | 0.262 | 0.473 | 0.547 | 0.56 | 0.519 | 0.5
16 | NCI-H1944 | 0.374 | 0.36 | 0.384 | 0.329 | 0.39 | 0.29 | 0.309 | 0.327 | 0.304 | 0.297 |  | 0.743 | 0.584 | 0.695 | 0.906 | 0.204 |  | 0.215 | 0.213 | 
17 | NCI-H596 | 0.652 | 0.775 | 0.777 | 0.64 | 0.609 | 0.347 | 0.378 | 0.34 | 0.402 | 0.264 | 1.13 | 1.2 | 1.07 | 1.06 | 0.911 | 0.566 | 0.675 | 0.667 | 0.615 | 0.594
